Experimental data published in patent publication US10882860B2, “Treatment of osteoarthritis” (Samumed, LLC, priority 2015, dated 2021).
Marks after values point to notes of the source that are not given here.

Experiments:
[1] = system: Human MSCs; test: Alcian Blue, Safranin O, and Type II collagen staining; format: cell-based; settings: 14 or 21 days; compared to control
Experimental: Human MSCs were plated in 96-well plates in chondrogenic induction medium (Lonza; DMEM, dexamethasone, ascorbate, insulin-transferrin-selenium [ITS supplement], gentamycin-amphotericin [GA-1000], sodium pyruvate, proline and L-glutamine) and treated with the compound of Formula (I) in DMSO or TGFβ3 (20 μg/mL) as a positive control. Cells were incubated at 37° C., 5% CO2 for either 14 or 21 days, with media changes every 5 days. The cells were fixed using 4% formaldehyde (Electron Microscopy Sciences). For Alcian Blue staining, cells were incubated with 10 mg/mL Alcian Blue (Sigma-Aldrich) in 3% acetic acid (Sigma-Aldrich), pH 2.5 for 30 minutes, washed with PBS, and imaged using a light microscope (Life Technologies) at 10× magnification. For Safranin O staining, cells were incubated with 0.1% Safranin O (Sigma-Aldrich) in distilled water for 5 minutes, washed with PBS and imaged using a light microscope (Life Technologies) at 10× magnification. For Type II collagen staining, cells were incubated with primary antibody in 3% BSA, 0.3% Triton X-100 in PBS with overnight incubation at […]. Cells were then washed and incubated with fluorophore-linked secondary antibody and DAPI (Life Technologies) for 1 hr at room temperature. Cells were washed and imaged using EVOS FL Microscope (Life Technologies).

[2] = format: in vivo, beagle dogs; settings: dog
Experimental: The local toxicology of Form 1 of the compound of Formula (I) in dogs was studied. The compound of Formula (I) (Form 1) was administered via single or multiple (9 times) intra-articular (IA) injections as a suspension composition in beagle dogs to evaluate local toxicity.
After IA injection, the right stifle joint was histologically evaluated for inflammation, cartilage health, bone density, etc. Toxicology was evaluated immediately after a single or multiple (3 or 9 once-monthly) IA injections.

[3] = system: moderate-to-severe symptomatic knee OA subjects; test: Phase 1 clinical study: safety and adverse events; format: in vivo, human; settings: for AE(s) Reported - All / AE(s) Reported - Target knee, Arthralgia / AE(s) Reported - Target knee, Injection site bruising / AE(s) Reported - Target knee, Injection site pain / AE(s) Reported - Target knee, Joint injury / AE(s) Reported - Target knee, Joint stiffiiess / AE(s) Reported - Target knee, Joint swelling / AE(s) Reported - Target knee, Meniscus injury / DLT(s) Reported / SAE(s) Reported: single IA injection
Experimental: A Phase 1 study was conducted to evaluate the safety and tolerability of the compound of Formula (I) (Form 1) administered by intra-articular injection into a target knee joint of moderate-to-severe symptomatic OA subjects.
The study was a first-in-human, multicenter, 24-week, placebo-controlled, single-dose, dose-escalation safety study of a Wnt pathway inhibitor in subjects suffering from moderate to severe symptomatic knee OA. The sample size was 20 subjects (randomized 4:1, 16 active: 4 placebo) per dosing cohort. Inclusion criteria included: Age, 50-75 years; Western Ontario and McMaster Universities Arthritis Index (WOMAC) Total score, 36-72 (out of 96); Kellgren-Lawrence grade, 2 or 3; and a willingness to omit pain medication for 24 hours prior to pain assessments. Exclusion criteria included: BMI>40; and treatment with IA steroids within 2 months or HA derivatives within 6 months prior to injection. A full list of the inclusion and exclusion criteria for this study can be found on clinicaltrials.gov (NCT02095548).
The dosing sequence included suspension compositions of either 0.03 mg, 0.07 mg, or 0.23 mg of the compound of Formula (I) (Form 1) per 2 mL injection in a vehicle containing 0.5% carboxymethylcellulose sodium and 0.05% polysorbate 80 in pH 7.4 phosphate buffered saline. The placebo contained only the diluent of 0.5% carboxymethylcellulose sodium and 0.05% polysorbate 80 in pH 7.4 phosphate buffered saline. The subjects were given a single, intra-articular injection in the target knee on Treatment Day 1 and participated in a follow-up period of 24 weeks.
Safety, pharmacokinetics (PK), biomarker, and efficacy data were collected at baseline and during the 24-week follow-up period. Safety data included adverse events (AEs), concomitant medications, clinical laboratory sampling, medical history, vital signs, ECGs, hip bone density (DXA) analysis, qCT of the target knee, and evaluation of bone edema via MM. For PK data, samples were collected 0, 4, and 24 hours post dose, and at Weeks 4 and 12. Biomarker data included data for procollagen type 1 N-propeptide (P1NP), beta C-terminal telopeptide of type 1 collagen (βCTX), and cartilage oligomeric matrix protein (COMP). Efficacy data included measurements of WOMAC Total score, WOMAC Function and Pain subscores, pain VAS, Physician Global Assessment of Disease Activity, MM, and radiographs. Efficacy assessments were used to determine the percentage of OMERACT-OARSI “strict” responders. Exploratory analyses of efficacy outcomes were conducted using a baseline-adjusted repeated measures analysis of covariance (ANCOVA) in the Intention-to-Treat (ITT) population. The sponsor was unblinded after Week 12 for each cohort; site investigators remained blinded. All AEs reported in this study were […]. Investigator opinion regarding whether AEs were related to the compound of Formula (I) was also collected for informational purposes.

Compound: CC(C)CC(=O)Nc1cncc(-c2ccc3[nH]nc(-c4nc5c(-c6cccc(F)c6)cncc5[nH]4)c3c2)c1 [compound of Formula (I)]
- chondrogenesis (Alcian Blue, Safranin O, Type II collagen staining) [1]: increased amount of chondrogenesis
- finding at the injection site of high-dose animals (synovium and extra-articular tissues) ([2]; in vivo): local inflammatory response
- no observed adverse effect level (NOAEL) ([2]; in vivo): 1.75 mg/knee
- histopathological effects in the bone and cartilage ([2]; single IA injection 0.07, 1.75 and 35 mg): no adverse histopathological effects
- Subjects Who Reported AE(s) [N(%)] ([3]; 0.03 mg cohort): 9 (53%) N(%)
- Subjects Who Reported No AE(s) [N(%)] ([3]; 0.03 mg cohort): 8 (47%) N(%)
- AE(s) Reported - All ([3]; 0.03 mg cohort): 15
- AE(s) Reported - Target knee, Arthralgia ([3]; 0.03 mg cohort): 1
- AE(s) Reported - Target knee, Injection site bruising ([3]; 0.03 mg cohort): 0
- AE(s) Reported - Target knee, Injection site pain ([3]; 0.03 mg cohort): 0
- AE(s) Reported - Target knee, Joint injury ([3]; 0.03 mg cohort): 1
- AE(s) Reported - Target knee, Joint stiffiiess ([3]; 0.03 mg cohort): 0
- AE(s) Reported - Target knee, Joint swelling ([3]; 0.03 mg cohort): 0
- AE(s) Reported - Target knee, Meniscus injury ([3]; 0.03 mg cohort): 0
- DLT(s) Reported ([3]; 0.03 mg cohort): 0
- SAE(s) Reported ([3]; 0.03 mg cohort): 0
- Subjects Who Reported AE(s) [N(%)] ([3]; 0.07 mg cohort): 6 (37%) N(%)
- Subjects Who Reported No AE(s) [N(%)] ([3]; 0.07 mg cohort): 10 (63%) N(%)
- AE(s) Reported - All ([3]; 0.07 mg cohort): 11
- AE(s) Reported - Target knee, Arthralgia ([3]; 0.07 mg cohort): 1
- AE(s) Reported - Target knee, Injection site bruising ([3]; 0.07 mg cohort): 0
- AE(s) Reported - Target knee, Injection site pain ([3]; 0.07 mg cohort): 2
- AE(s) Reported - Target knee, Joint injury ([3]; 0.07 mg cohort): 0
- AE(s) Reported - Target knee, Joint stiffiiess ([3]; 0.07 mg cohort): 0
- AE(s) Reported - Target knee, Joint swelling ([3]; 0.07 mg cohort): 1
- AE(s) Reported - Target knee, Meniscus injury ([3]; 0.07 mg cohort): 0
- DLT(s) Reported ([3]; 0.07 mg cohort, increased target knee pain and paroxysmal tachycardia): 2*
- SAE(s) Reported ([3]; 0.07 mg cohort, paroxysmal tachycardia): 1*
- Subjects Who Reported AE(s) [N(%)] ([3]; 0.23 mg cohort): 7 (44%) N(%)
- Subjects Who Reported No AE(s) [N(%)] ([3]; 0.23 mg cohort): 9 (56%) N(%)
- AE(s) Reported - All ([3]; 0.23 mg cohort): 25
- AE(s) Reported - Target knee, Arthralgia ([3]; 0.23 mg cohort): 1
- AE(s) Reported - Target knee, Injection site bruising ([3]; 0.23 mg cohort): 1
- AE(s) Reported - Target knee, Injection site pain ([3]; 0.23 mg cohort): 1
- AE(s) Reported - Target knee, Joint injury ([3]; 0.23 mg cohort): 0
- AE(s) Reported - Target knee, Joint stiffiiess ([3]; 0.23 mg cohort): 1
- AE(s) Reported - Target knee, Joint swelling ([3]; 0.23 mg cohort): 1
- AE(s) Reported - Target knee, Meniscus injury ([3]; 0.23 mg cohort): 1
- DLT(s) Reported ([3]; 0.23 mg cohort): 0
- SAE(s) Reported ([3]; 0.23 mg cohort): 0
- AEs considered related to study medication by the reporting investigator ([3]; 16 of 77 AEs): 22%
- exposed subjects who reported no AEs ([3]; 27 of 49 exposed subjects): 55%
- overall safety and tolerability ([3]; single IA injection of suspension formulated from Form 1, interim data): safe, well-tolerated
